The target of this assay is T1, human subtype 5 somatostatin receptor (SSTR5) (Homo sapiens, UniProt P35346).
T1 construct: host or cells: CHO cell line, stably transfected; membranes prepared by sonication and centrifugation
T1 sequence (P35346 whole entry): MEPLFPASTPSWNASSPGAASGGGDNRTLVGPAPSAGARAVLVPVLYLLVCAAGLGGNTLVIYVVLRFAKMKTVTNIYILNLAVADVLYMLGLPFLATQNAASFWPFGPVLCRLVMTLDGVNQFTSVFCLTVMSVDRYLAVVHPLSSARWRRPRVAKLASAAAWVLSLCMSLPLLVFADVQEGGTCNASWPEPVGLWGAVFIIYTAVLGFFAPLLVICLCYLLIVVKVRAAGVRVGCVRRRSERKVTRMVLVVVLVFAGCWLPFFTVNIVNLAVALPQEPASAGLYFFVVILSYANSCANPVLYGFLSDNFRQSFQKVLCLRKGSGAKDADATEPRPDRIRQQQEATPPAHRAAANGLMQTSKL
Description: radioligand replacement (binding) assay, 125I-labeled 11-Tyr somatostatin-14, membranes of CHO cells expressing SSTR5. As to conditions: membranes of CHO cells stably transfected with human SSTR5; 0.05 nM 125I tracer; Ki calculated from IC50 by Cheng-Prussoff equation. As for the experimental part: A CHO cell line stably transfected with a plasmid encoding the human subtype 5 somatostatin receptor (GenBank accession number D16827) was obtained from Euroscreen. Cells were cultured and used for binding and functional assays.
Membranes of these cells were prepared by sonication in the presence of protease inhibitors and subsequent fractionating centrifugation. The protein concentration in the membrane preparation was determined using a commercial kit (BCA kit, Pierce, USA). Membranes were stored at −80° C. until use. After thawing membranes were diluted in assay buffer (50 mM Tris-HCl at pH 7.4, 5 mM MgCl2 and 0.20% BSA) and subjected to dounce homogenization.
For binding studies, 0.1 mL membrane suspension, corresponding to approximately 6×10^−15 mol receptor, was incubated for 1 h at room temperature with 0.05 nM ^125I-labeled tracer (11-Tyr somatostatin-14, Perkin-Elmer) and either test compounds in varying concentrations or, for the determination of non-specific binding, 0.001 mM non-labeled somatostatin-14. The incubation was stopped by filtration through GF/B glassfiber filters and washing with ice-cold wash buffer (50 mM Tris-HCl at pH 7.4). The bound radioactivity was measured after application of a scintillation cocktail (Microscint 40) and expressed as disintegrations per minute (dpm).
The receptor concentration was determined in a prior saturation experiment where a fixed, arbitrary amount of membranes was incubated with a concentration range of radio-labeled tracer. This allows estimating the total number of specific binding sites per amount of protein (i.e., Bmax), typically between 1 and 5 pmol/mg.
The concentration of the test compound required to result in half maximal inhibition of binding of the radio-labeled tracer (IC50) was estimated from a concentration-versus-dpm graph. The binding affinity (Ki) was calculated from the IC50 by applying the Cheng-Prussoff equation for single binding sites.
In the case of `CCOc1cc(CN2CCC3(CC2)NC(=O)NC3=O)ccc1Cl` [Example 2, 8-(4-chloro-3-ethoxy-benzyl)-1,3,8-triaza-spiro[4.5]decane-2,4-dione], the Ki is 51 nM.

As for `CCOc1cc(CN2CCC3(CC2)NC(=O)NC3=O)cc(OCC)c1Cl` [Example 5, 8-(4-chloro-3,5-diethoxy-benzyl)-1,3,8-triaza-spiro[4.5]decane-2,4-dione], the Ki is 42 nM.

With `CCOc1cc(CN2CCC3(CC2)NC(=O)NC3=O)cc(OCC)c1-n1cccc1` [Example 7, 8-(3,5-diethoxy-4-pyrrol-1-yl-benzyl)-1,3,8-triaza-spiro[4.5]decane-2,4-dione], the Ki was 15 nM.

As for `CCOc1cc(CN2CCC3(CC2)CCN(c2ccccc2)C3=O)cc(OCC)c1Cl` [Example 11, 8-(4-chloro-3,5-diethoxy-benzyl)-2-phenyl-2,8-diaza-spiro[4.5]decan-1-one], the Ki was 228 nM.

For `CCOc1cc(CN2CCC3(CC2)N=C(c2ccccc2)NC3=O)ccc1C` [Example 15, 8-(3-ethoxy-4-methyl-benzyl)-2-phenyl-1,3,8-triaza-spiro[4.5]dec-1-en-4-one], the Ki is 37 nM.

With `CCOc1cc(CN2CCC3(CC2)N=C(c2ccccc2)NC3=O)ccc1Cl` [Example 17, 8-(4-chloro-3-ethoxy-benzyl)-2-phenyl-1,3,8-triaza-spiro[4.5]dec-1-en-4-one], the inhibition constant Ki is 50 nM.

`CCOc1cc(CN2CCC3(CC2)N=C(c2ccccc2)NC3=O)ccc1OC(F)F` [Example 26, 8-(4-difluoromethoxy-3-ethoxy-benzyl)-2-phenyl-1,3,8-triaza-spiro[4.5]dec-1-en-4-one]: the Ki was 226 nM.

As to `COc1ccc(CN2CCC3(CC2)N=C(c2ccccc2)NC3=O)cc1OCCF` [Example 29, 8-[3-(2-fluoro-ethoxy)-4-methoxy-benzyl]-2-phenyl-1,3,8-triaza-spiro[4.5]dec-1-en-4-one], the Ki was 717 nM.

Turning to `COc1ccc(CN2CCC3(CC2)N=C(c2ccccc2)NC3=O)cc1OC1CCCC1` [Example 33, 8-(3-cyclopentyloxy-4-methoxy-benzyl)-2-phenyl-1,3,8-triaza-spiro[4.5]dec-1-en-4-one], the Ki is 273 nM.

`CCOc1cc(CN2CCC3(CC2)N=C(c2ccccc2)NC3=O)cc(OCC)c1Br` [Example 38, 8-(4-bromo-3,5-diethoxy-benzyl)-2-phenyl-1,3,8-triaza-spiro[4.5]dec-1-en-4-one]: the Ki is 18 nM.

Regarding `CCOc1cc(CN2CCC(NC(=O)c3ccc(Cl)cc3)(C(N)=O)CC2)cc(OCC)c1Cl` [Example 42, 4-(4-chloro-benzoylamino)-1-(4-chloro-3,5-diethoxy-benzyl)-piperidine-4-carboxylic acid amide], the Ki is 96 nM.

With `CCOc1cc(CN2CCC(C#N)(NC(=O)c3cncc(C)c3)CC2)cc(OCC)c1F` [Example 44, N-[4-cyano-1-(3,5-diethoxy-4-fluoro-benzyl)-piperidin-4-yl]-5-methyl-nicotinamide], the Ki was 342 nM.

As for `CCOc1cc(CN2CCC(C#N)(NC(=O)c3ccc(Cl)nc3)CC2)cc(OCC)c1-c1ccc(F)cc1` [Example 46, 6-chloro-N-[4-cyano-1-(2,6-diethoxy-4′-fluoro-biphenyl-4-ylmethyl)-piperidin-4-yl]-nicotinamide], the Ki is 66 nM.

Broadly, the Ki is a dissociation constant, usually derived from enzyme kinetics or from competition with a known ligand.

Values taken from patent US8026365B2, “4,4-disubstituted piperidine derivatives” (Hoffman-La Roche Inc., priority 2007, dated 2011).
